Data on six compounds can be found in ChEMBL document CHEMBL1157750, “Synthesis and evaluation of 17alpha-arylestradiols as ligands for estrogen receptor alpha and beta” (J Med Chem, 2010).

pEC50, pIC50: −log10 of the molar value. Activity calls are given as the source filed them. The calls are words filed in the database; no cut-off is given here.

Assay [1] deals with MCF7. Description: Estrogenic activity in human MCF7 cells assessed as induction of cell proliferation at 100 nM after 6 days by fluorescence assay. The class given is functional, cell-based.
The subject of assay [2] is MCF7. Put plainly: Estrogenic activity in human MCF7 cells assessed as induction of cell proliferation at 0.001 to 1 nM after 6 days by fluorescence assay. The class given is functional, cell-based.
Assay [3] concerns the target T1, Estrogen receptor beta (Homo sapiens, UniProt Q92731).
Description: Binding affinity to ERbeta by fluorescence polarization-based competitive binding assay
Assay [4] concerns the target T1, Estrogen receptor beta. This is another data set of the same source.
Description: Transactivation of human ERbeta expressed in HEK293 cells after 18 hrs by luciferase reporter gene assay
Assay [5] has as its target T2, Estrogen receptor (Homo sapiens, UniProt P03372).
T2 sequence (P03372 whole entry): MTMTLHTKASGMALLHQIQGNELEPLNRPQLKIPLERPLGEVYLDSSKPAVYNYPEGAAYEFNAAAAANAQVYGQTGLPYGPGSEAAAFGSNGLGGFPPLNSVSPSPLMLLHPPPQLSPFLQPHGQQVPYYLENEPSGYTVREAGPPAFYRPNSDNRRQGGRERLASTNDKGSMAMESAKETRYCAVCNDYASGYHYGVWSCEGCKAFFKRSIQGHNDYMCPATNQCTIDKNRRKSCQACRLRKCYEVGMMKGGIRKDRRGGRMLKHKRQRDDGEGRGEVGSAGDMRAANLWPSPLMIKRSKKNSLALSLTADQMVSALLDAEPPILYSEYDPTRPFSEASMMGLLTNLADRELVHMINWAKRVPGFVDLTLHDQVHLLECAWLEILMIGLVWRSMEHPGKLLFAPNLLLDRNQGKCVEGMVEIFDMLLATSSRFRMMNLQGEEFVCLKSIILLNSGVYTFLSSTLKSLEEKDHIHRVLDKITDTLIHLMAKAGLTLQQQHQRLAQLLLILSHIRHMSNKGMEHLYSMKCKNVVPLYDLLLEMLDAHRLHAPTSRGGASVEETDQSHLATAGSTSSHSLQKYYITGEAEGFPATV
Description: Binding affinity to ERalpha by fluorescence polarization-based competitive binding assay

Assay [6] has as its system MCF7. Put plainly: Estrogenic activity in human MCF7 cells assessed as induction of cell proliferation at 1 nM after 6 days by fluorescence assay. The class given is functional, cell-based.
Assay [7] has as its target T2, Estrogen receptor. The source holds these as a separate data set.
Description: Transactivation of human ERalpha expressed in HEK293 cells after 18 hrs by luciferase reporter gene assay
The species named for assay [8] is Homo sapiens. Description: Selectivity ratio of EC50 for human ERbeta to EC50 for human ERalpha.

T1 sequence (Q92731 whole entry): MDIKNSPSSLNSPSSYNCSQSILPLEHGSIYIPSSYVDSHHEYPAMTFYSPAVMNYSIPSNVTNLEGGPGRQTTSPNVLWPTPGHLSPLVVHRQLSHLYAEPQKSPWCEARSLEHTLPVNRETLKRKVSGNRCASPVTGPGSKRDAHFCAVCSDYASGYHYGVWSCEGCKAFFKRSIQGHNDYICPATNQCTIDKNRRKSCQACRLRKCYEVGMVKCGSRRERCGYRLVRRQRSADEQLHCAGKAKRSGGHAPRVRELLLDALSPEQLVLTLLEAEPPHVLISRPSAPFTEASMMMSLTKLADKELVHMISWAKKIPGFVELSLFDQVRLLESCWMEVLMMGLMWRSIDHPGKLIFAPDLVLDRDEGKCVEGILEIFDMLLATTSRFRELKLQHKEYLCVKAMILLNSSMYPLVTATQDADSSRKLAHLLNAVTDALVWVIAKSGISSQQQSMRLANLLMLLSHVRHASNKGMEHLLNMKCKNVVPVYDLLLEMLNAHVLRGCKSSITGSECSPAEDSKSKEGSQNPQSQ

For `C[C@]12CC[C@@H]3c4ccc(O)cc4CC[C@H]3[C@@H]1CC[C@@]2(O)c1ccc2c(c1)COC2`, the result in assay [1] and in assay [2] was Active.

A word on the pIC50: it is the negative decadic logarithm of the IC50, by convention in mol/L. Read a high pIC50 as a small IC50. One may read the pEC50 as the negative decadic logarithm of the EC50, by convention in mol/L. A low value points to a high EC50. Turning to `CCOC(=O)C1(C(C)=O)Cc2ccc([C@]3(O)CC[C@H]4[C@@H]5CCc6cc(O)ccc6[C@H]5CC[C@@]43C)cc2C1` (some centres not stated), the outcome in assay [1] and in assay [2] was Active. For the same compound, in assay [3], the pIC50 is 6.50. The pEC50 in assay [4] is 7.46.

`Cc1ccc(S(=O)(=O)N2Cc3ccc([C@]4(O)CC[C@H]5[C@@H]6CCc7cc(O)ccc7[C@H]6CC[C@@]54C)cc3C2)cc1`: the outcome in assay [1] and in assay [2] was Active. Also, in assay [3], the pIC50 is 6.30. Moreover, in assay [4], the pEC50 was 6.62.

As to `CC(=O)C1(C(C)=O)Cc2ccc([C@]3(O)CC[C@H]4[C@@H]5CCc6cc(O)ccc6[C@H]5CC[C@@]43C)cc2C1`, the result in assay [1] and in assay [6] was Active. For the same compound, the pIC50 was 6.61 in assay [5] and 6.60 in assay [3]. Also, the pEC50 in assay [7] is 6.47; in assay [4] it was 6.66.

`CCOC(=O)C1(C(=O)OCC)Cc2ccc([C@]3(O)CC[C@H]4[C@@H]5CCc6cc(O)ccc6[C@H]5CC[C@@]43C)cc2C1`: in assay [8], the Ratio EC50 is 13. In addition, the outcome in assay [1] and in assay [2] was Active. Besides, the negative logarithm of the IC50 (pIC50) in assay [5] is 6.31; in assay [3] it was 5.96. For the same compound, the pEC50 in assay [7] was 7.85; in assay [4], 6.76.

As for `CCOC(=O)C1(C#N)Cc2ccc([C@]3(O)CC[C@H]4[C@@H]5CCc6cc(O)ccc6[C@H]5CC[C@@]43C)cc2C1` (some centres not stated), the result in assay [1] and in assay [2] was Active. Moreover, the negative-log IC50 (pIC50) in assay [3] is 7.27. In assay [4], this compound gave a pEC50 of 7.64.
